Source: patent publication US10828298B2, “Pharmaceutical composition containing 2-{4-[N-(5,6-diphenylpyrazin-2-yl)-N-isopropylamino]butyloxy]-N-(methylsulfonyl)acetamide” (NIPPON SHINYAKU CO., LTD., priority 2015, dated 2020)

Legend:
[1] = Stability of Compound (I) itself to temperature and humidity (formulation study); type: physicochemical
[2] = target: prostaglandin I2 (PGI2) receptor (Homo sapiens, UniProt P43119); conditions: known, PTL 1; cited from earlier work
prostaglandin I2 (PGI2) receptor, sequence (P43119 whole entry): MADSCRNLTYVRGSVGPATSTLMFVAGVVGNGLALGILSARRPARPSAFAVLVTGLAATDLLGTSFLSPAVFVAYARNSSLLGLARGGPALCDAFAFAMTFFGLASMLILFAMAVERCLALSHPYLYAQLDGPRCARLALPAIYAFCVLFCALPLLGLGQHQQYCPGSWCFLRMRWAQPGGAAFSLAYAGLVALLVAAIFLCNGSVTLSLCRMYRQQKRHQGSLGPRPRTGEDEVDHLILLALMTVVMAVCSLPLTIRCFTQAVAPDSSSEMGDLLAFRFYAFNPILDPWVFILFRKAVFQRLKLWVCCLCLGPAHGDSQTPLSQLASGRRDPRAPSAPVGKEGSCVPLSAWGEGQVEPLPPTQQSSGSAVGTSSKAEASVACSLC

Stability of Compound (I) itself, in words [1]: stable to temperature and humidity
Compound: CC(C)N(CCCCOCC(=O)NS(C)(=O)=O)c1cnc(-c2ccccc2)c(-c2ccccc2)n1 [Compound (I), 2-{4-[N-(5,6-diphenylpyrazin-2-yl)-N-isopropylamino]butyloxy}-N-(methylsulfonyl)acetamide]
PGI2 receptor agonistic activity, in words [2]: excellent
